Values joined by “and” are separate entries in the source; they are usually repeats but may differ in a detail not shown here. Equal values may be shown once.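 Each compound was tested at five concentrations against cells in 96-well plates for 48 hours. At the GI50, growth is halved. TGI: total growth inhibition.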
Experiments:
Experiment in all cases: NCI tumour cell line growth inhibition, 48 h
TK-10 renal = test system: TK-10 renal
M14 melanoma = test system: M14 melanoma
SNB-19 CNS = test system: SNB-19 CNS
UACC-62 melanoma = test system: UACC-62 melanoma
K-562 leukemia = test system: K-562 leukemia
SK-MEL-2 melanoma = test system: SK-MEL-2 melanoma
EKVX NSCLC = test system: EKVX NSCLC
U251 CNS = test system: U251 CNS
HCT-116 colon = test system: HCT-116 colon
SF-539 CNS = test system: SF-539 CNS

SMILES | TGI (TK-10 renal) [µM] | TGI (M14 melanoma) [µM] | TGI (SNB-19 CNS) | TGI (UACC-62 melanoma) | TGI (K-562 leukemia) [µM] | TGI (SK-MEL-2 melanoma) | TGI (EKVX NSCLC) [µM] | TGI (U251 CNS) | TGI (HCT-116 colon) | TGI (SF-539 CNS) | GI50 (SNB-19 CNS) [µM] | GI50 (UACC-62 melanoma) [µM] | GI50 (K-562 leukemia) [µM] | GI50 (SK-MEL-2 melanoma) [µM] | GI50 (EKVX NSCLC) [µM] | GI50 (U251 CNS) [µM] | GI50 (HCT-116 colon) [µM] | GI50 (SF-539 CNS) [µM]
O=C(c1ccc(O)c([N+](=O)[O-])c1)c1ccc(O)c([N+](=O)[O-])c1 | > 100 | > 100 | > 100 µM | > 100 µM | > 100 | > 100 µM | > 100 | > 100 µM | > 100 µM | > 100 µM | – | – | – | – | – | – | – | –
CCOC(=O)C(C)(C)Oc1ccc2c(-c3ccc(Cl)cc3)c(-c3ccc(Cl)cc3)c(=O)oc2c1 | > 100 | > 100 | > 100 µM | > 100 µM | > 100 | > 100 µM | > 100 | > 100 µM | > 100 µM | > 100 µM | – | – | – | – | – | – | – | –
COc1ccc2c(c1)c1nn(CCN3CCCCC3)c3ccc4c(=O)n(CCN(C)C)c(=O)n2c4c13 | 0.44 | 0.109 | 0.532 µM | 0.197 µM | 0.6 | 0.271 µM | 0.0406 | 0.111 µM | 0.0213 µM | 0.975 µM | – | – | – | – | – | – | – | –
COC(=O)C1=CON2C3CC4CC(C3)CC(C4)C12C (configuration not stated) | > 100 | > 100 | > 100 µM | > 100 µM | > 100 | > 100 µM | > 100 | > 100 µM | > 100 µM | > 100 µM | – | – | – | – | – | – | – | –
CCOC(=O)C(NC(=O)CC)(Nc1ccc(F)c(Cl)c1)C(F)(F)F (configuration not stated) | > 100 | > 100 | > 100 µM | > 100 µM | > 100 | > 100 µM | > 100 | > 100 µM | > 100 µM | > 100 µM | – | – | – | – | – | – | – | –
CCOC(=O)C(=O)CC(=O)C1=C(c2ccccc2OC)CC(c2cccs2)=CC1=O | > 100 | > 100 | > 100 µM | > 100 µM | > 100 | > 100 µM | > 100 | > 100 µM | > 100 µM | > 100 µM | – | – | – | – | – | – | – | –
CNC(=S)NNc1ncnc2c1ncn2-c1ccc(C)cc1 | > 100 | > 100 | > 100 µM | > 100 µM | > 100 | > 100 µM | > 100 | > 100 µM | > 100 µM | > 100 µM | – | – | – | – | – | – | – | –
N#CC[N+]1(Cc2ccccn2)CCCC1 | > 100 | > 100 | > 100 µM | > 100 µM | > 100 | > 100 µM | > 100 | > 100 µM | > 100 µM | > 100 µM | – | – | – | – | – | – | – | –
COC12C=CC(C=C1C#N)CC2 (configuration not stated) (tested in a mixture with another compound) | > 100 | > 100 | > 100 µM | > 100 µM | > 100 | > 100 µM | > 100 | > 100 µM | > 100 µM | > 100 µM | – | – | – | – | – | – | – | –
Cc1cc(N(CCC#N)CCC#N)ccc1/C=C1\SC(=S)NC1=O | > 100 | > 100 | > 100 µM | > 100 µM | > 100 | > 100 µM | > 100 | > 100 µM | > 100 µM | > 100 µM | – | – | – | – | – | – | – | –
CCN(CC)CCOC(=O)Cc1cccc2c(=O)cc(-c3ccccc3)oc12 | 52.5 | 62.5 | 62.5 µM and > 211 µM | 62.5 µM and > 154 µM | – | 62.5 µM and > 212 µM | 62.5 | 62.5 µM and > 121 µM | 62.5 µM and > 153 µM | 62.5 µM and > 179 µM | 112 | 39.5 | 406 | 52.9 | 25.2 | 57.9 | 85.1 | 58.6
CCCCCN(CCCCC)CC(C)(C)C(O)c1ccc(OC)c2ccccc12 (configuration not stated) | 25.6 | 21.7 | 28 µM | 25.6 µM | 25 | 32.7 µM | 25.9 | 22.7 µM | 61.9 µM | 17.6 µM | – | – | – | – | – | – | – | –
COc1ccc(N=C2C(=Nc3ccc(OC)cc3)N(c3ccc(N(C)C)cc3)C(=S)N2c2ccc(OC)cc2)cc1 | > 100 | > 100 | > 100 µM | > 100 µM | > 100 | > 100 µM | > 100 | > 100 µM | > 100 µM | > 100 µM | – | – | – | – | – | – | – | –
CC(=O)OC(C)(C)CCC(=O)[C@](C)(O)[C@H]1[C@H](O)C[C@@]2(C)[C@@H]3CC=C4C(C)=C(OC5OC(CO)C(O)C(O)C5O)C(=O)C[C@@H]4[C@]3(C)C(=O)C[C@]12C (some centres not stated) | > 100 | > 100 | > 100 µM | > 100 µM | > 100 | > 100 µM | > 100 | > 100 µM | > 100 µM | > 100 µM | – | – | – | – | – | – | – | –
O=C(N/N=C(/COc1ccccc1Cl)N=Cc1ccncc1)c1ccncc1 | > 100 | > 100 | > 100 µM | > 100 µM | > 100 | > 100 µM | > 100 | > 100 µM | > 100 µM | > 100 µM | – | – | – | – | – | – | – | –
CCCCCCCCCCCCCCCCCC(=O)Nc1ccn(C2CCC(COP(=O)(O)O)O2)c(=O)n1 (configuration not stated) | > 100 | > 100 | > 100 µM | > 100 µM | > 100 | > 100 µM | > 100 | > 100 µM | > 100 µM | > 100 µM | – | – | – | – | – | – | – | –
Cc1c(-c2nnc(-c3ccccc3)o2)c(=O)n(-c2ccccc2)n1C | > 100 | > 100 | > 100 µM | > 100 µM | > 100 | > 100 µM | > 100 | > 100 µM | > 100 µM | > 100 µM | – | – | – | – | – | – | – | –
COc1ccc2c(c1)CCN1CCCc3ccccc3C21 (configuration not stated) | > 100 | 37.9 | > 100 µM | > 100 µM | > 100 | > 100 µM | > 100 | > 100 µM | 92.8 µM | 34.7 µM | – | – | – | – | – | – | – | –
